Source: patent US20120029187A1, “HALOALKYLSULFONANILIDE DERIVATIVE” (Nissan Chemical Industries, Ltd., priority 2009, published 2012)

Columns and labels:
Type in all cases: in vivo
common ragweed [1] = assay: Test Example 3: herbicidal effects in soil treatment; conditions: dose 3.2 g/a
Method in brief: (§1)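 Seeds were sown in sterilized diluvial soil and covered with about 1.5 cm of soil. Compounds, formulated as emulsifiable concentrates and diluted with water, were sprayed evenly over the soil surface at set doses in g/a. Herbicidal effect was scored on a rating scale three weeks later.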

beadstraw [2] = assay: as above; conditions: dose 3.2 g/a
Method in brief: as §1

velvetleaf [3] = assay: as above; conditions: dose 3.2 g/a
Method in brief: as §1

redroot pigweed [4] = assay: as above; conditions: dose 3.2 g/a
Method in brief: as §1

posumbu knotweed [5] = assay: as above; conditions: dose 3.2 g/a
Method in brief: as §1

common lambsquater [6] = assay: as above; conditions: dose 3.2 g/a
Method in brief: as §1

Italian ryegrass [7] = assay: as above; conditions: dose 3.2 g/a
Method in brief: as §1

barnyardgrass [8] = assay: as above; conditions: dose 3.2 g/a
Method in brief: as §1

large crabgrass [9] = assay: as above; conditions: dose 3.2 g/a
Method in brief: as §1

common chickweed [10] = assay: as above; conditions: dose 3.2 g/a
Method in brief: as §1

giant foxtail [11] = assay: as above; conditions: dose 3.2 g/a
Method in brief: as §1

water foxtail [12] = assay: as above; conditions: dose 3.2 g/a
Method in brief: as §1

common ragweed [13] = assay: Test Example 4: herbicidal effect in foliage treatment; conditions: dose 3.2 g/a, three weeks after application
Method in brief: (§2)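 Doses are given in grams per are of applied compound, sprayed as water-diluted emulsifiable concentrate onto foliage of 14-day-old plants grown at 25 to 30° C. Herbicidal activity was assessed visually on a rating scale after three weeks.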

beadstraw [14] = assay: as above; conditions: dose 3.2 g/a, three weeks after application
Method in brief: as §2

velvetleaf [15] = assay: as above; conditions: dose 3.2 g/a, three weeks after application
Method in brief: as §2

redroot pigweed [16] = assay: as above; conditions: dose 3.2 g/a, three weeks after application
Method in brief: as §2

posumbu knotweed [17] = assay: as above; conditions: dose 3.2 g/a, three weeks after application
Method in brief: as §2

common lambsquater [18] = assay: as above; conditions: dose 3.2 g/a, three weeks after application
Method in brief: as §2

Italian ryegrass [19] = assay: as above; conditions: dose 3.2 g/a, three weeks after application
Method in brief: as §2

barnyardgrass [20] = assay: as above; conditions: dose 3.2 g/a, three weeks after application
Method in brief: as §2

large crabgrass [21] = assay: as above; conditions: dose 3.2 g/a, three weeks after application
Method in brief: as §2

common chickweed [22] = assay: as above; conditions: dose 3.2 g/a, three weeks after application
Method in brief: as §2

giant foxtail [23] = assay: as above; conditions: dose 3.2 g/a, three weeks after application
Method in brief: as §2

water foxtail [24] = assay: as above; conditions: dose 3.2 g/a, three weeks after application
Method in brief: as §2

transplanted rice = assay: Test Example 1: preemergence treatment under submerged conditions, effect on crop; conditions: dose 2.52 g/a
Method in brief: (§3)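 Scoring 0 (<5% mortality) to 5 (≥90%) was done three weeks after preemergence application to the water surface of submerged (4 cm) alluvial soil, doses given as g per are. Weeds were seeded and 2.5-leaf rice transplanted on the treatment day; greenhouse at 25–30 °C.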

ducksalad [25] = assay: Test Example 1: herbicidal effects in preemergence treatment under submerged conditions; conditions: dose 2.52 g/a
Method in brief: as §3

bulrush [26] = assay: as above; conditions: dose 2.52 g/a
Method in brief: as §3

barnyardgrass [27] = assay: as above; conditions: dose 2.52 g/a
Method in brief: as §3

ducksalad [28] = assay: Test Example 2: herbicidal effects during the vegetation period under submerged conditions; conditions: treatment during the vegetation period under submerged conditions; dose 2.52 g/a
Method in brief: (§4)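 Barnyardgrass, bulrush and ducksalad were co-sown in alluvial soil flooded to 4 cm and grown in a greenhouse at 25 to 30° C. At the 1- or 2-leaf stage, water-diluted emulsifiable concentrates went onto the water surface at set doses (g/a). Herbicidal effect was scored three weeks later on a graded scale.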

bulrush [29] = assay: as above; conditions: treatment during the vegetation period under submerged conditions; dose 2.52 g/a
Method in brief: as §4

barnyardgrass [30] = assay: as above; conditions: treatment during the vegetation period under submerged conditions; dose 2.52 g/a
Method in brief: as §4

SMILES	J: common ragweed, herbicidal effect (evaluation scale 0-5) (common ragweed [1])	O: beadstraw, herbicidal effect (evaluation scale 0-5) (beadstraw [2])	I: velvetleaf, herbicidal effect (evaluation scale 0-5) (velvetleaf [3])	K: redroot pigweed, herbicidal effect (evaluation scale 0-5) (redroot pigweed [4])	M: posumbu knotweed, herbicidal effect (evaluation scale 0-5) (posumbu knotweed [5])	L: common lambsquater, herbicidal effect (evaluation scale 0-5) (common lambsquater [6])	H: Italian ryegrass, herbicidal effect (evaluation scale 0-5) (Italian ryegrass [7])	A: barnyardgrass, herbicidal effect (evaluation scale 0-5) (barnyardgrass [8])	D: large crabgrass, herbicidal effect (evaluation scale 0-5) (large crabgrass [9])	N: common chickweed, herbicidal effect (evaluation scale 0-5) (common chickweed [10])	E: giant foxtail, herbicidal effect (evaluation scale 0-5) (giant foxtail [11])	G: water foxtail, herbicidal effect (evaluation scale 0-5) (water foxtail [12])	J: common ragweed, herbicidal effect (common ragweed [13])	O: beadstraw, herbicidal effect (beadstraw [14])	I: velvetleaf, herbicidal effect (velvetleaf [15])	K: redroot pigweed, herbicidal effect (redroot pigweed [16])	M: posumbu knotweed, herbicidal effect (posumbu knotweed [17])	L: common lambsquater, herbicidal effect (common lambsquater [18])	H: Italian ryegrass, herbicidal effect (Italian ryegrass [19])	A: barnyardgrass, herbicidal effect (barnyardgrass [20])	further results
CCOC(=O)N(c1ccccc1CN1COC2(CCC2)CC1=O)S(=O)(=O)C(F)(F)F [II-63]	4 (mortality of at least 70% and less than 90%)	4 (mortality of at least 70% and less than 90%)	5 (mortality of 90% or above (nearly complete death))	4 (mortality of at least 70% and less than 90%)	4 (mortality of at least 70% and less than 90%)	3 (mortality of at least 40% and less than 70%)	4 (mortality of at least 70% and less than 90%)	5 (mortality of 90% or above (nearly complete death))	5 (mortality of 90% or above (nearly complete death))	5 (mortality of 90% or above (nearly complete death))	5 (mortality of 90% or above (nearly complete death))	5 (mortality of 90% or above (nearly complete death))	4 (mortality of at least 70% and less than 90%)	3 (mortality of at least 40% and less than 70%)	5 (mortality of 90% or above (nearly complete death))	2 (mortality of at least 20% and less than 40%)	4 (mortality of at least 70% and less than 90%)	3 (mortality of at least 40% and less than 70%)	4 (mortality of at least 70% and less than 90%)	5 (mortality of 90% or above (nearly complete death))	D: large crabgrass, herbicidal effect (large crabgrass [21]): 4 (mortality of at least 70% and less than 90%); N: common chickweed, herbicidal effect (common chickweed [22]): 4 (mortality of at least 70% and less than 90%); E: giant foxtail, herbicidal effect (giant foxtail [23]): 4 (mortality of at least 70% and less than 90%); G: water foxtail, herbicidal effect (water foxtail [24]): 5 (mortality of 90% or above (nearly complete death)); a: transplanted rice, effect on crop (evaluation scale 0-5) (transplanted rice): 1 (mortality of at least 5% and less than 20%); C: ducksalad, herbicidal effect (evaluation scale 0-5) (ducksalad [25]): 5 (mortality of 90% or above (nearly complete death)); B: bulrush, herbicidal effect (evaluation scale 0-5) (bulrush [26]): 5 (mortality of 90% or above (nearly complete death)); A: barnyardgrass, herbicidal effect (evaluation scale 0-5) (barnyardgrass [27]): 5 (mortality of 90% or above (nearly complete death)); C: ducksalad, herbicidal effect (evaluation scale 0-5) (ducksalad [28]): 5 (mortality of 90% or above (nearly complete death)); B: bulrush, herbicidal effect (evaluation scale 0-5) (bulrush [29]): 5 (mortality of 90% or above (nearly complete death)); A: barnyardgrass, herbicidal effect (evaluation scale 0-5) (barnyardgrass [30]): 5 (mortality of 90% or above (nearly complete death))
O=C1CC2(CCCCC2)OCN1Cc1ccccc1NS(=O)(=O)C(F)(F)F [II-67]	2 (mortality of at least 20% and less than 40%)	5 (mortality of 90% or above (nearly complete death))	5 (mortality of 90% or above (nearly complete death))	3 (mortality of at least 40% and less than 70%)	5 (mortality of 90% or above (nearly complete death))	5 (mortality of 90% or above (nearly complete death))	5 (mortality of 90% or above (nearly complete death))	5 (mortality of 90% or above (nearly complete death))	5 (mortality of 90% or above (nearly complete death))	5 (mortality of 90% or above (nearly complete death))	5 (mortality of 90% or above (nearly complete death))	5 (mortality of 90% or above (nearly complete death))	3 (mortality of at least 40% and less than 70%)	3 (mortality of at least 40% and less than 70%)	5 (mortality of 90% or above (nearly complete death))	0 (mortality of less than 5% (almost ineffective))	3 (mortality of at least 40% and less than 70%)	4 (mortality of at least 70% and less than 90%)	2 (mortality of at least 20% and less than 40%)	5 (mortality of 90% or above (nearly complete death))	D: large crabgrass, herbicidal effect (large crabgrass [21]): 5 (mortality of 90% or above (nearly complete death)); N: common chickweed, herbicidal effect (common chickweed [22]): 4 (mortality of at least 70% and less than 90%); E: giant foxtail, herbicidal effect (giant foxtail [23]): 5 (mortality of 90% or above (nearly complete death)); G: water foxtail, herbicidal effect (water foxtail [24]): 5 (mortality of 90% or above (nearly complete death)); a: transplanted rice, effect on crop (evaluation scale 0-5) (transplanted rice): 0 (mortality of less than 5% (almost ineffective)); C: ducksalad, herbicidal effect (evaluation scale 0-5) (ducksalad [25]): 5 (mortality of 90% or above (nearly complete death)); B: bulrush, herbicidal effect (evaluation scale 0-5) (bulrush [26]): 5 (mortality of 90% or above (nearly complete death)); A: barnyardgrass, herbicidal effect (evaluation scale 0-5) (barnyardgrass [27]): 5 (mortality of 90% or above (nearly complete death)); C: ducksalad, herbicidal effect (evaluation scale 0-5) (ducksalad [28]): 5 (mortality of 90% or above (nearly complete death)); B: bulrush, herbicidal effect (evaluation scale 0-5) (bulrush [29]): 5 (mortality of 90% or above (nearly complete death)); A: barnyardgrass, herbicidal effect (evaluation scale 0-5) (barnyardgrass [30]): 5 (mortality of 90% or above (nearly complete death))
